Measurements published in patent publication US20090105322A1, “PHARMACEUTICAL COMPOSITION COMPRISING VALSARTAN” (priority 2003, published 2009).

Columns and labels:
[1] = tested on: cardiac hemodynamics in CHF patients (NYHA Class II-IV); experiment: Protocol 103: chronic central hemodynamic effects in non-ACE inhibitor treated CHF patients; assay type: in vivo, human; conditions: 40, 80 and 160 mg b.i.d. for 4 weeks; preliminary trial results
Description: Two Phase II studies (Protocols 103 and 104) have been recently completed. Protocol 103 is a randomized, double-blind, placebo-controlled, parallel group, dose ranging trial to determine the chronic central hemodynamic effects of valsartan 40 mg b.i.d., 80 mg b.i.d., 160 mg b.i.d. and lisinopril 10 mg o.d. administered for 4 weeks to non-ACE inhibitor treated CHF patients (NYHA Class II-IV).

[2] = tested on: AF occurrence in patients with symptomatic HF (EF<40% and dilated ventricle-LVIDD>2.9); experiment: Occurrence of AF from adverse event reports in the Val-HeFT trial; assay type: in vivo, human
Description: The occurrence of AF was evaluated based on adverse event reports in the patients with symptomatic heart failure (ejection fraction<40% and dilated ventricle-left ventricular internal diastolic diameter (LVIDD)>2.9) enrolled in the Val-HeFT trial. The Val-HeFT trial is set forth in Example 2. The occurrence of AF was evaluated based on adverse event reports in the patients with symptomatic HF (EF<40% and dilated ventricle-LVIDD>2.9) enrolled in the Val-HeFT trial (set forth in Example 2). Patients were randomized to valsartan or placebo on top of the prescribed treatments for heart failure. During the 23 months of follow-up of the study, AF was reported in 328/5000 patients (6.6%), 132/2506 (5.27%) in the valsartan allocated patients and 196/2494 (7.86%) in those allocated to placebo (p=0.0002). […] This is a multicountry, randomized, double-blind, forced titration, parallel, placebo-controlled trial. Patients will be stratified according to their use of beta blockers at randomization. At Visit 2, patients who meet the randomization criteria will be stratified according to their use of beta blockers and randomized to receive either valsartan 40 mg b.i.d. or placebo (Level 1). After 2 weeks of treatment (Visit 3), patients will be titrated up to receive either valsartan 80 mg b.i.d. or placebo, respectively (Level 2). The criteria for titration are given below. Following another 2 week treatment period (Visit 4), patients will again be titrated up to receive valsartan 160 mg b.i.d. or placebo, respectively (Level 3). The criteria for titration are given below. Patients not tolerating the highest dose of valsartan will be titrated down to the next lower dose after 2 weeks of treatment (Visit 5).

[3] = tested on: systolic and diastolic blood pressure in patients with essential arterial hypertension; experiment: Treatment of patients with essential arterial hypertension; assay type: in vivo, human; conditions: 80 mg o.d.; compared with ACE inhibitors and other antihypertensive medications
Text: Valsartan (CGP 48933) is an orally active, potent and specific competitive Ang II antagonist at the level of the AT1-receptor subtype.

[4] = tested on: rapid pacing induced heart failure; experiment: Rapid pacing induced heart failure model in mini pigs; assay type: in vivo; conditions: valsartan in combination with an ACE inhibitor, compared to either ACE inhibition or AT1-receptor blockade alone
Text: The effect of valsartan alone and in combination with an ACE inhibitor was studied in a model of rapid pacing induced heart failure in mini pigs.

Question: How did the “Cardiac hemodynamics versus placebo” value [1] turn out when `CCCCC(=O)N(Cc1ccc(-c2ccccc2-c2nnn[nH]2)cc1)[C@H](C(=O)O)C(C)C` [valsartan, (S)-N-(1-carboxy-2-methyl-prop-1-yl)-N-pentanoyl-N-[2; (1H-tetrazol-5-yl)biphenyl-4-yl-methyl]amine] was run?
Answer: The value was “clinically relevant and statistically significant improvements in cardiac hemodynamics versus placebo”.

Question: What about the “AF reported (percent of allocated patients)” value ([2]; 23 months of follow-up, valsartan on top of prescribed heart failure treatments, vs placebo 7.86%, p=0.0002) of the same molecule?
Answer: The value was 5.27%.

Question: What about the “AF reported (patients with AF / patients allocated)” value ([2]; 23 months of follow-up, valsartan on top of prescribed heart failure treatments, vs placebo 196/2494) of the same molecule?
Answer: Its value is 132/2506.

Question: And the “Reduction of the incidence of AF” value ([2]; valsartan added to prescribed therapy (93% ACE-inhibitors, 35% beta-blockers))?
Answer: The value was about 35%.

Question: And the “RR for AF occurrence (logistic regression analysis)” value ([2]; valsartan treatment as independent predictor, 95% CI: 0.52-0.82)?
Answer: The value was 0.65.

Question: What about the “Decreases in systolic and diastolic blood pressure” value [3] of the same molecule?
Answer: The value was “comparable to those achieved by treatment with ACE inhibitors and other antihypertensive medications”.

Question: And the Tolerability profile [3]?
Answer: Its Tolerability profile is “more favorable tolerability profile”.

Question: What about the “Left ventricular function and geometry, and myocyte inotropic response” value [4] of the same molecule?
Answer: Its value is “further beneficial effects on left ventricular function and geometry, and myocyte inotropic response”.
